Reference: ChEMBL document CHEMBL4831542, “Design, Synthesis, and Biological Evaluation of Icaritin Derivatives as Novel Putative DEPTOR Inhibitors for Multiple Myeloma Treatment” (J Med Chem, 2021)
Active and inactive are the calls of the source. The rule behind the calls is not given here.

Legend:
RPMI-8226 [1] = assay: Antiproliferative activity against human RPMI8226 cells assessed as inhibition of cell proliferation at 125 uM incubated for 72 hrs by CCK8 assay; assay type: functional
RPMI-8226 [2] = assay: cells; settings: Homo sapiens, RPMI-8226, 72 h
Description: Antiproliferative activity against human RPMI-8226 cells assessed as inhibition of cell proliferation incubated for 72 hrs by CCK8 assay

RPMI-8226 [3] = assay: Cell cycle arrest in human RPMI8226 cells assessed as accumulation of cells at G1 phase at 1 uM measured after 36 hrs by flow cytometry (reference value: 22.95%); assay type: functional
RPMI-8226 [4] = assay: Cell cycle arrest in human RPMI8226 cells assessed as accumulation of cells at G2 phase at 1 uM measured after 36 hrs by flow cytometry (reference value: 27.03%); assay type: functional
RPMI-8226 [5] = assay: Cell cycle arrest in human RPMI8226 cells assessed as accumulation of cells at S phase at 4 uM measured after 36 hrs by flow cytometry (reference value: 50.02%); assay type: functional
RPMI-8226 [6] = assay: Induction of apoptosis in human RPMI8226 cells assessed as early apoptotic cells at 4 uM measured after 36 hrs by Annexin V-FITC based flow cytometry (reference value: 7.48%); assay type: functional
RPMI-8226 [7] = assay: Induction of apoptosis in human RPMI8226 cells assessed as late apoptotic cells at 4 uM measured after 36 hrs by Annexin V-FITC based flow cytometry (reference value: 0.81%); assay type: functional
HepG2 = assay: cells; settings: Homo sapiens, HepG2, 72 h
Description: Antiproliferative activity against human HepG2 cells assessed as inhibition of cell proliferation incubated for 72 hrs by CCK8 assay

RPMI-8226 [8] = assay: Antitumor activity against human RPMI8226 cells xenografted in BALB/c mouse assessed as tumor growth inhibition at 100 mg/kg, po once a day for 3 weeks relative to control; assay type: functional; settings: RPMI-8226, po, 504 h, read-out: TGI
RPMI-8226 [9] = assay: Induction of apoptosis in human RPMI8226 cells assessed as early apoptotic cells at 1 uM measured after 36 hrs by Annexin V-FITC based flow cytometry (reference value: 7.48%); assay type: functional
U-266 = assay: cells; settings: Homo sapiens, U-266, 72 h
Description: Antiproliferative activity against human U266 cells assessed as inhibition of cell proliferation incubated for 72 hrs by CCK8 assay

RPMI-8226 [10] = assay: Reduction in DEPTOR protein expression in human RPMI8226 cells incubated for 24 hrs by Western blot analysis; assay type: functional, cell-based; settings: dose 1-4 µM
RPMI-8226 [11] = assay: Cell cycle arrest in human RPMI8226 cells assessed as accumulation of cells at G2 phase at 4 uM measured after 36 hrs by flow cytometry (reference value: 27.03%); assay type: functional
RPMI-8226 [12] = assay: Cell cycle arrest in human RPMI8226 cells assessed as accumulation of cells at G2 phase at 2 uM measured after 36 hrs by flow cytometry (reference value: 27.03%); assay type: functional
HL-60 = assay: cells; settings: Homo sapiens, HL-60, 72 h
Description: Antiproliferative activity against human HL-60 cells assessed as inhibition of cell proliferation incubated for 72 hrs by CCK8 assay

RPMI-8226 [13] = assay: Cell cycle arrest in human RPMI8226 cells assessed as accumulation of cells at S phase at 2 uM measured after 36 hrs by flow cytometry (reference value: 50.02%); assay type: functional
RPMI-8226 [14] = assay: Cell cycle arrest in human RPMI8226 cells assessed as accumulation of cells at G1 phase at 2 uM measured after 36 hrs by flow cytometry (reference value: 22.95%); assay type: functional
[15] = Toxicity in BALB/c mouse xenografted with human RPMI8226 cells assessed as change in body weight at 100 to 200 mg/kg, po once a day for 3 weeks; assay type: organism-based, RPMI-8226; settings: in vivo, 504 h, dose 100-200 mg/kg
SiHa = assay: cells; settings: Homo sapiens, 72 h
Description: Antiproliferative activity against human SiHa cells assessed as inhibition of cell proliferation incubated for 72 hrs by CCK8 assay

RPMI-8226 [16] = assay: Induction of apoptosis in human RPMI8226 cells assessed as viable cells at 1 uM measured after 36 hrs by Annexin V-FITC based flow cytometry (reference value: 91.68%); assay type: functional; settings: read-out: Activity
RPMI-8226 [17] = assay: Induction of apoptosis in human RPMI8226 cells assessed as early apoptotic cells at 2 uM measured after 36 hrs by Annexin V-FITC based flow cytometry (reference value: 7.48%); assay type: functional
RPMI-8226 [18] = assay: Induction of apoptosis in human RPMI8226 cells assessed as viable cells at 2 uM measured after 36 hrs by Annexin V-FITC based flow cytometry (reference value: 91.68%); assay type: functional; settings: read-out: Activity
RPMI-8226 [19] = assay: Antitumor activity against human RPMI8226 cells xenografted in BALB/c mouse assessed as reduction in tumor weight at 100 to 200 mg/kg, po once a day for 3 weeks; assay type: functional, organism-based; settings: dose 100-200 mg/kg
RPMI-8226 [20] = assay: Cell cycle arrest in human RPMI8226 cells assessed as accumulation of cells at G1 phase at 4 uM measured after 36 hrs by flow cytometry (reference value: 22.95%); assay type: functional
U2OS = assay: cells; settings: Homo sapiens, 72 h
Description: Antiproliferative activity against human U2OS cells assessed as inhibition of cell proliferation incubated for 72 hrs by CCK8 assay

MGC-803 = assay: cells; settings: Homo sapiens, MGC-803, 72 h
Description: Antiproliferative activity against human MGC-803 cells assessed as inhibition of cell proliferation incubated for 72 hrs by CCK8 assay

RPMI-8226 [21] = assay: Induction of apoptosis in human RPMI8226 cells assessed as necrotic cells at 1 uM measured after 36 hrs by Annexin V-FITC based flow cytometry (reference value: 0.03%); assay type: functional
MOLT-4 = assay: cells; settings: Homo sapiens, MOLT-4, 72 h
Description: Antiproliferative activity against human MOLT-4 cells assessed as inhibition of cell proliferation incubated for 72 hrs by CCK8 assay

U-251 = assay: cells; settings: Homo sapiens, U-251, 72 h
Description: Antiproliferative activity against human U251 cells assessed as inhibition of cell proliferation incubated for 72 hrs by CCK8 assay

RPMI-8226 [22] = assay: Induction of apoptosis in human RPMI8226 cells assessed as necrotic cells at 4 uM measured after 36 hrs by Annexin V-FITC based flow cytometry (reference value: 0.03%); assay type: functional
RPMI-8226 [23] = assay: Cell cycle arrest in human RPMI8226 cells assessed as accumulation of cells at S phase at 1 uM measured after 36 hrs by flow cytometry (reference value: 50.02%); assay type: functional
RPMI-8226 [24] = assay: Induction of apoptosis in human RPMI8226 cells assessed as necrotic cells at 2 uM measured after 36 hrs by Annexin V-FITC based flow cytometry (reference value: 0.03%); assay type: functional
NCI-H460 = assay: cells; settings: Homo sapiens, NCI-H460, 72 h
Description: Antiproliferative activity against human NCI-H460 cells assessed as inhibition of cell proliferation incubated for 72 hrs by CCK8 assay

RPMI-8226 [25] = assay: Induction of apoptosis in human RPMI8226 cells assessed as late apoptotic cells at 2 uM measured after 36 hrs by Annexin V-FITC based flow cytometry (reference value: 0.81%); assay type: functional
DLD-1 = assay: cells; settings: Homo sapiens, DLD-1, 72 h
Description: Antiproliferative activity against human DLD1 cells assessed as inhibition of cell proliferation incubated for 72 hrs by CCK8 assay

RPMI-8226 [26] = assay: Induction of apoptosis in human RPMI8226 cells assessed as viable cells at 4 uM measured after 36 hrs by Annexin V-FITC based flow cytometry (reference value: 91.68%); assay type: functional; settings: read-out: Activity
RPMI-8226 [27] = assay: Induction of apoptosis in human RPMI8226 cells assessed as late apoptotic cells at 1 uM measured after 36 hrs by Annexin V-FITC based flow cytometry (reference value: 0.81%); assay type: functional
RPMI-8226 [28] = assay: Reduction in DEPTOR mRNA expression in human RPMI8226 cells by quantitative PCR analysis relative to control; assay type: functional, cell-based; settings: dose 1-4 µM
RPMI-8226 [29] = assay: Antitumor activity against human RPMI8226 cells xenografted in BALB/c mouse assessed as tumor growth inhibition at 200 mg/kg, po once a day for 3 weeks relative to control; assay type: functional; settings: RPMI-8226, po, 504 h, read-out: TGI
MCF7 = assay: cells; settings: Homo sapiens, MCF7, 72 h
Description: Antiproliferative activity against human MCF7 cells assessed as inhibition of cell proliferation incubated for 72 hrs by CCK8 assay

RPMI-8226 [30] = assay: Antiproliferative activity against human RPMI8226 cells assessed as inhibition of cell proliferation at 250 uM incubated for 72 hrs by CCK8 assay; assay type: functional

## COc1ccc(-c2oc3c(CNC(Cc4ccccc4)C(=O)O)c(O)ccc3c(=O)c2O)c(OC)c1 (stereo not given)
RPMI-8226 [1]
  inhibition at 125 µM: 30%

## O=c1c(O)c(-c2ccc(Cl)c(Cl)c2)oc2c3c(ccc12)OCN(CC1CCOCC1)C3
RPMI-8226 [2]
  IC50: 4.81 µM

## COc1ccc(-c2oc3c4c(ccc3c(=O)c2O)OCN(C2CCN(C)CC2)C4)c(OC)c1
RPMI-8226 [2]
  IC50: 44.8 µM

## O=c1c(O)c(-c2ccc(Cl)c(Cl)c2)oc2c(CN3CCOCC3)c(O)ccc12
RPMI-8226 [2]
  IC50: 4.03 µM

## O=C(O)[C@@H]1CCCN1Cc1c(O)ccc2c(=O)c(O)c(-c3cccc(Cl)c3Cl)oc12
RPMI-8226 [1]
  inhibition at 125 µM: 49%

## CCN(CC)Cc1c(O)ccc2c(=O)c(O)c(-c3ccc(OC)cc3OC)oc12
RPMI-8226 [1]
  inhibition at 125 µM: 25%

## O=c1c(O)c(-c2ccc(Cl)c(Cl)c2)oc2c3c(ccc12)OCN(Cc1ccncc1)C3
RPMI-8226 [2]
  IC50: 5.9 µM

## CCN(CC)Cc1c(O)ccc2c(=O)c(O)c(-c3cccc(Cl)c3Cl)oc12
RPMI-8226 [2]
  IC50: 60.4 µM

## O=c1c(O)c(-c2ccc(Cl)c(Cl)c2)oc2c3c(ccc12)OCN(Cc1cccc(F)c1)C3
RPMI-8226 [3]
  Activity: 22.33%
RPMI-8226 [4]
  Activity: 25.91%
RPMI-8226 [5]
  Activity: 62.51%
RPMI-8226 [6]
  Activity: 60.59%
RPMI-8226 [7]
  Activity: 25.18%
HepG2
  IC50: > 10 µM
RPMI-8226 [8]
  inhibition in vivo at 100 mg/kg: 45.4%
RPMI-8226 [9]
  Activity: 24.26%
U-266
  IC50: 1.11 µM
RPMI-8226 [10]
  Activity: Dose-Dependent Effect
RPMI-8226 [11]
  Activity: 15.01%
RPMI-8226 [12]
  Activity: 26.33%
HL-60
  IC50: 6.6 µM
RPMI-8226 [13]
  Activity: 55.5%
RPMI-8226 [14]
  Activity: 18.17%
[15]
  Activity: Non-Toxic
SiHa
  IC50: > 10 µM
RPMI-8226 [16]
  viability at 1 µM: 65%
RPMI-8226 [17]
  Activity: 53.44%
RPMI-8226 [18]
  viability at 2 µM: 29.4%
RPMI-8226 [19]
  Activity: Active
RPMI-8226 [20]
  Activity: 22.38%
U2OS
  IC50: > 10 µM
MGC-803
  IC50: > 10 µM
RPMI-8226 [21]
  Activity: 1.55%
MOLT-4
  IC50: 7.02 µM
U-251
  IC50: > 10 µM
RPMI-8226 [22]
  Activity: 0.28%
RPMI-8226 [23]
  Activity: 51.75%
RPMI-8226 [24]
  Activity: 0.54%
NCI-H460
  IC50: > 10 µM
RPMI-8226 [25]
  Activity: 16.6%
DLD-1
  IC50: 10 µM
RPMI-8226 [26]
  viability at 4 µM: 13.9%
RPMI-8226 [27]
  Activity: 9.16%
RPMI-8226 [2]
  IC50: 1.09 µM
RPMI-8226 [28]
  Activity: Dose-Dependent Effect
RPMI-8226 [29]
  inhibition in vivo at 200 mg/kg: 61.1%
MCF7
  IC50: 8.68 µM

## O=c1c(O)c(-c2cccc(Cl)c2Cl)oc2c(CN3CCCC3)c(O)ccc12
RPMI-8226 [2]
  IC50: 42.8 µM

## COc1ccc(-c2oc3c(CN4CCOCC4)c(O)ccc3c(=O)c2O)c(OC)c1
RPMI-8226 [1]
  inhibition at 125 µM: 25%

## COc1ccc(-c2oc3c(CNCC(=O)O)c(O)ccc3c(=O)c2O)c(OC)c1
RPMI-8226 [2]
  IC50: 66.2 µM

## COc1ccc(-c2oc3c(CC=C(C)C)c(O)cc(O)c3c(=O)c2O)cc1 [ICARITIN]
RPMI-8226 [2]
  IC50: 20.8 µM

## O=c1c(O)c(-c2ccncc2)oc2c3c(ccc12)OCN(Cc1ccc(Cl)c(Cl)c1)C3
RPMI-8226 [2]
  IC50: 27.6 µM

## CN1CCC(N2COc3ccc4c(=O)c(O)c(-c5cccc(Cl)c5Cl)oc4c3C2)CC1
RPMI-8226 [2]
  IC50: 4.29 µM

## COc1ccc(-c2oc3c(CN4CCCC4)c(O)ccc3c(=O)c2O)c(OC)c1
RPMI-8226 [30]
  inhibition at 250 µM: 53%

## O=c1c(O)c(-c2cccc(Cl)c2Cl)oc2c(CN3CCOCC3)c(O)ccc12
RPMI-8226 [2]
  IC50: 29.8 µM

## COc1ccc(-c2oc3c4c(ccc3c(=O)c2O)OCN(NCc2ccc(Cl)c(Cl)c2)C4)c(OC)c1
RPMI-8226 [1]
  inhibition at 125 µM: 36%

## COc1ccc(-c2oc3c(CNCC4CCOCC4)c(O)ccc3c(=O)c2O)c(OC)c1
RPMI-8226 [1]
  inhibition at 125 µM: 16%

## COc1ccc(-c2oc3c(CNCc4ccccc4)c(O)ccc3c(=O)c2O)c(OC)c1
RPMI-8226 [2]
  IC50: 14.9 µM

## COc1ccc(-c2oc3c(CNCc4ccncc4)c(O)ccc3c(=O)c2O)c(OC)c1
RPMI-8226 [2]
  IC50: 56.6 µM

## COc1ccc(-c2oc3c(CNCc4cccc(F)c4)c(O)ccc3c(=O)c2O)c(OC)c1
RPMI-8226 [1]
  inhibition at 125 µM: 19%
